Target: Pst_13661 (Puccinia striiformis f. sp. tritici, UniProt A0A0L0V0Y3, T32S)
Type: biochemical
Conditions: 100 µM

Structure (SMILES): O=C(NO)c1ccccc1 [Compound 1, benzohydroxamic acid]
- Inhibition Rate Pst_13661 Mean: 100.8%

From article PMC10310857 (Nature Communications, 2023)
